Values of other authors, collected in PMC11434354, “Metabolic and Pharmacokinetic Profiling Studies of N, N-Dimethylaniline-Heliamine in Rats by UHPLC-Q-Orbitrap MS/MS” (Molecules, 2024).

Parameters: method as in doi:10.37547/TAJMSPR/Volume02Issue07-17
Conditions: cited from earlier work

In the case of COc1cc2c(cc1OC)C(c1ccc(N(C)C)cc1)NCC2 (stereo not shown) [DH, N, N-dimethylaniline-heliamine], the antiarrhythmic activity is listed as “promising antiarrhythmic activity”.
